Results on three compounds are retold here after patent publication EP0523085B1, “PEROXY ACID BLEACH PRECURSORS AND DETERGENT COMPOSITIONS CONTAINING THEM” (priority 1990, dated 1991).

Data set [1] can be described thus: perhydrolysis with sodium perborate tetrahydrate at 10°C, iodometric titration. The note with it: for rates of perhydrolysis, comparison of the two precursors: each predissolved (KDAES in distilled water, TAED in dimethyl formamide); for time for dissolution and perhydrolysis to be substantially complete: precursor added in solid form, KDAES assumed to be 82% active. On the procedure: A jacketed 1 litre glass vessel fitted with a magnetic stirrer was used to carry out the perhydrolysis and the temperature of the solution was controlled at 10°C by means of a Thermomix (RTM) cooling unit which was used to circulate the cooled water through a jacket around the perhydrolysis vessel
The value obtained for the blank was subtracted from the values obtained at the various time intervals to give the figure from which the percentage perhydrolysis was calculated.

The nature of data set [2]: water solubility at 10°C (saturated solution in distilled water). It counts as physicochemical. On the procedure: For the purposes of the present invention the solubility of a precursor in water is defined as the weight of the compound that can be dissolved in 100ml distilled water at 10°C, expressed on a percentage basis. Precursors in accordance with the invention have water solubilities of at least 25% by weight, more preferably at least 50% and most preferably at least 75%.
The water solubility of this material was determined by cooling 2.3g distilled water to 10°C and adding the precursor until no further material would dissolve. A slight excess was then added and the temperature raised to 25°C to give complete solution before recooling to 10°C, ensuring that crystallisation of the precursor took place from a saturated solution.

Read-outs that look alike come from different tables or passages of the source. Where only a bound is given, the exact number is not on record here.

In the case of “tetra acetyl ethylene diamine [TAED, reference compound]”, in data set [1], the “rates of perhydrolysis, comparison of the two precursors” value is recorded as “broadly similar”; the “time for dissolution and perhydrolysis to be substantially complete” value is “at least 30 minutes”.

In data set [2], `CC(=O)N(CCC[N+](C)(C)C)C(C)=O.[Br-]` [DTAPB, N,N-diacetyl trimethylammonio propylamine bromide] gave a solubility of 75.6%. Also, the “precursor perhydrolysed within 5 minutes” value in data set [1] (solid product, on the basis of a purity of 97.6%) is listed as “approx. 92%”.

Turning to `CC(=O)N(CCS(=O)(=O)[O-])C(C)=O.[K+]` [KDAES, potassium N,N-diacetylaminoethane sulphonate], the solubility in data set [2] (distilled water, 10°C) is listed as 66.6%. Moreover, the “amount of the precursor dissolved” value in data set [2] (in 2.3g distilled water at 10°C) is 4.71 g. Also, in data set [1], the “rates of perhydrolysis, comparison of the two precursors” value is reported as “broadly similar”; the “time for dissolution and perhydrolysis to be substantially complete” value was not above 5 min.
